{"source": "patent US12241058B2", "about": "“Recombinant microbial system for directed evolution of glycocins and method of preparation thereof” (COUNCIL OF SCIENTIFIC & INDUSTRIAL RESEARCH, priority 2018, dated 2025)", "key": {"L. monocytogenes EGD-e": {"tested_on": "L. monocytogenes EGD-e", "assay": "Agar diffusion test (ADT) of cell lysates, zone of growth inhibition, with PAS staining for glycosylation", "format": "cell-based, Listeria monocytogenes", "settings": "for Zone of inhibition as well as glycosylation positive: ADT against L. monocytogenes, cleavage buffer treated cell lysate, glycosylation by PAS staining"}, "human red blood cells": {"tested_on": "human red blood cells", "assay": "Hemolytic assay", "format": "cell-based", "experimental": "Samples were prepared within 3 h of performing the assay. Neo-glycocins stock solutions of 1 mg/ml were prepared by dissolving the neo-glycocins in PBS (10 mM phosphate buffer, pH 7.4); the samples were mixed by inversion to ensure neo-glycocins were completely dissolved in PBS. To prepare the Human Red Blood Cell (hRBC) solution, blood was collected from healthy individual and RBCs were isolated following standard procedure. Informed consent was acquired from all donors and this work was carried out in compliance with the ethical committee guidelines of CSIR-IMTECH with IEC NO SUIEC/14/03.\n2 ml whole blood from healthy individual was centrifuged for 30 mins at 1000 rpm(4° C.). Layer of RBCs was collected and diluted with equal volume of 1×PBS and mixture was centrifuged three times for 10 mins at 1000 rpm, 4° C. To prepare 4% RBC solution, 1 ml of RBC were mixed with 24 ml 1×PBS. To examine the hemolysis property of neo-glycocins (75-1000 μM), 20 μl of freshly prepared neo-glycocins solution was mixed with 180 μl of freshly prepared hRBC solution and was placed at 37° C. for 1 h. A total of 20 μl of PBS buffer only and 20 μl of Triton X-100 1% (w/v) were mixed with 180 μl of hRBC solution as negative and positive controls, respectively. After 1 h of incubation, all samples were centrifuged at 2500 rpm for 10 min. A total of 100 μl of supernatant was collected, and the release of hemoglobin was monitored by measuring the absorbance of the supernatant at 570 nm with a Multiskan Go plate-reader (Thermo Scientific). Hemolysis percentage for each sample was calculated by dividing sample's absorbance on positive control absorbance (complete hemolysis) multiplied by 100."}, "[1]": {"assay": "Cytotoxicity MTT reduction assay", "format": "cell-based", "settings": "human; 50% cell death, THP-1 cells, MTT, 18-24 hours", "experimental": "(§1) Cytotoxicity of Enterocin 96 and its variants (neo-glycocins) against THP-1 cells and anti-cancer potential against HepG2 cells was measured by the conventional MTT reduction assay. HepG2 and THP-1 cells (1×10^4 cells/well) were seeded into the 96-well plate and cultured at 37° C. in an atmosphere of 5% CO2 to allow them to adhere overnight. After 24 hours, the cells were exposed to Enterocin 96 and its variants (neo-glycocins) at various concentrations (75-1000 μM) for 18-24 hours. After the incubation period, 150 μl media and the suspended cells were discarded and washed with 200 μl PBS. After that, 200 μl of fresh media was added followed by 20 μl of MTT (5 mg/mL) into each well in the 96-well plate and incubated for 4 h in CO2 incubator. One hundred and fifty microlitres of medium with MTT was removed from every well and 100 μl DMSO was added to each well to solubilize the formazan crystal by incubating for 20 min in CO2 incubator. Finally, the plates were read at 570 nm by using Multiskan Go plate-reader (Thermo Scientific) and then percentage of cell viability was determined."}, "THP-1 cells": {"tested_on": "THP-1 cells", "assay": "Cytotoxicity MTT reduction assay", "format": "cell-based", "experimental": "as §1"}, "HepG2 cells": {"tested_on": "HepG2 cells", "assay": "Anti-cancer MTT reduction assay", "format": "cell-based", "experimental": "as §1"}, "E. coli MTCC 1610": {"tested_on": "E. coli MTCC 1610", "assay": "Agar diffusion test (ADT) of cleaved neo-glycocins", "format": "cell-based", "description": "(§2) FIG. 5B (d-i): Confirmation of antimicrobial activity of cleaved neo glycocins against bacterial strains namely L. monocytogenes EGDe (FIG. 5Bd-e): Vibrio cholera MTCC 3904 (FIG. 5Bf), E. coli 1610 (FIG. 5Bg), Bacillus lichenmformis MTCC 9857 (FIG. 5Bh) and Bacillus halodurans MTCC 7181 (FIG. 5Bi) using ADT;\nWhere in #1, f and g: cell lysate of cleavage buffer treated C13T, a variant of Enterocin 96 having SEQ ID NO: 10; #2, f and g: positive control parent peptide Enterocin 96 diglycosylated having SEQ ID NO: 9; #3, f and g: negative control/lysis buffer; #4.f and g: is negative control/cleavage buffer;\n(§3) The cell lysate containing glycocins were directly subjected to agar diffusion test (ADT) using L. monocytogenes EGD-e. In ADT, the agar plates seeded with L. monocytogenes EGD-e (approximately 10^7 cells) were prepared. Approximately 100 μL lysate containing glycocin or its variants (neo-glycocin) (SEQ ID NO: 9, SEQ ID NO: 10 and SEQ ID NO: 11) were applied into the wells in the seeded plate followed by incubation of the plate at 4° C. for 1 h. Presence of inhibition zones around the wells was checked post overnight incubation of the plates at 37° C. The antimicrobial activities of the glycocin and neo-glycocin were determined by monitoring the zone of growth inhibition on the plates."}, "[2]": {"tested_on": "Bacillus licheniformis MTCC 9857", "assay": "Agar diffusion test (ADT) of cleaved neo-glycocins", "format": "cell-based", "description": "as §2\nWherein #1, h and i: cell lysate of cleavage buffer treated C13T, a variant of Enterocin 96 having SEQ ID NO: 10; #2, h and i: positive control parent peptide Enterocin 96 diglycosylated having SEQ ID NO: 9; #3, h and i: negative control/cleavage buffer; #4, h and i: is nisin (1 mg/ml).\nas §3"}, "bacterial strains": {"tested_on": "bacterial strains", "assay": "Antimicrobial spectrum by ADT against bacterial strains", "format": "cell-based", "settings": "FIG. 5B a-i", "experimental": "as §2\nSimultaneously, to check the change in spectrum of bioactivity of neo-glycocins, the agar plates of L. monocytogenes EGD-e seeded with approximately 10^7 bacterial cells were prepared. A 100 μL of cell lysate of mutants were added into the each well and then the plate was incubated at 4° C. for 1 h followed by overnight incubation at 37° C. The presence of inhibition zones around the wells was checked. The antimicrobial activity was determined by monitoring the zone of growth inhibition. […] The glycosylation status of the neo-glycocin produced from the selected mutant were analyzed using PAS staining and MALDI-TOF and LC-ESI-MS analysis as discussed below."}, "L. monocytogenes [3]": {"tested_on": "L. monocytogenes", "assay": "pH and heat stability, bioactivity verified using ADT assay", "settings": "121° C. for 15 minutes"}, "[4]": {"tested_on": "L. monocytogenes MTCC 839", "assay": "Agar diffusion test (ADT) of cleaved neo-glycocins", "format": "cell-based, Listeria monocytogenes", "settings": "L. monocytogenes MTCC 839, FIG. 5Bd-e"}, "L. monocytogenes [5]": {"tested_on": "L. monocytogenes", "assay": "Determination of the MIC against L. monocytogenes (96-well broth dilution)", "format": "cell-based, Listeria monocytogenes", "settings": "Minimum Inhibitory Concentration against L. monocytogenes, 18 h at 37° C.", "experimental": "One colony of an indicator strain (L. monocytogenes) was picked from an NB agar plate, inoculated to liquid NB medium and grown at 37° C., in a shaking incubator until OD^600 nm of 0.5 was reached. Then, the culture was diluted with NB medium and serial twofold dilutions with NB medium were made. Hundred microliters of Enterocin 96 solution (1 mg/ml in MQ) were transferred to a 96-well plate and mixed with 100 μl previously prepared cell suspension of sensitive strain. Similarly, positive control Nisin (1 mg/ml in MQ, Sigma Cat. # N5764), 100 μl mixture of NB medium with the Listeria, and negative controls (media alone, untreated indicator strain). 100 μL mixture of NB medium were prepared and dispersed in the same 96-well plates. The plate was incubated for 18 h at 37° C. in a shaking incubator. After incubation, the growth of bacteria was evaluated visually and by a plate reader. The analyses were performed in triplicate. Similarly, MIC of other variants of Enterocin 96 (neo-glycocins) was determined using above described method."}}, "note": "No end group written: not given here. *: point of attachment. X1 = OC[C@H]1O[C@@H](O[C@H]2[C@H](O)[C@@H](O)[C@H](*)O[C@@H]2CO)[C@H](O)[C@@H](O)[C@@H]1O"}
{"substance": "MASKRDCNLMKATCAGQAVTYAIHSLLNRLGGDS(X1)SDPAGCNDIVRKYCK (cysteines drawn unpaired) [SEQ ID NO: 10]", "values": [{"measurement": "Zone of inhibition as well as glycosylation positive", "setting": "L. monocytogenes EGD-e", "result": "positive"}, {"measurement": "Zone of inhibition as well as glycosylation positive", "setting": "L. monocytogenes EGD-e; listed as C13T", "result": "Yes"}, {"measurement": "Hemolysis compared with Nisin and Enterocin 96", "setting": "human red blood cells; FIG. 6A", "result": "no significant change"}, {"measurement": "IC50", "setting": "[1]", "result": "248.6 ± 0.105", "unit": "µM"}, {"measurement": "Cytotoxicity compared with Nisin and Enterocin 96", "setting": "THP-1 cells; THP-1, FIG. 6B", "result": "no significant change"}, {"measurement": "Cytotoxicity compared with Nisin and Enterocin 96", "setting": "HepG2 cells; HepG2, FIG. 6C", "result": "no significant change"}, {"measurement": "Bioactivity against Gram negative bacteria E. coli MTCC 1610", "setting": "E. coli MTCC 1610", "result": "observed"}, {"measurement": "Bioactivity against Gram positive spore forming bacteria Bacillus licheniformis MTCC 9857", "setting": "[2]", "result": "observed"}, {"measurement": "Antimicrobial spectrum compared with native glycocin / Nisin and Enterocin 96", "setting": "bacterial strains", "result": "different antimicrobial spectrum"}, {"measurement": "Antimicrobial spectrum compared with native glycocin / Nisin and Enterocin 96", "setting": "bacterial strains; listed as C13T", "result": "improved antibacterial spectrum"}, {"measurement": "Water solubility", "setting": "Water solubility", "result": "water soluble"}, {"measurement": "Bioactivity against L. monocytogenes post autoclaving", "setting": "L. monocytogenes [3]", "result": "retain bioactivity"}]}
{"substance": "MASKRDCNLMKACCAGQAVTYAIHSLLNRLGGDS(X1)SDPAGCNDIVRKYCK (cysteines drawn unpaired) [SEQ ID NO: 9, Enterocin 96, reference compound]", "values": [{"measurement": "IC50", "setting": "[1]", "result": "194.1 ± 0.119", "unit": "µM"}, {"measurement": "Bioactivity against Gram negative bacteria E. coli MTCC 1610", "setting": "E. coli MTCC 1610", "result": "not"}, {"measurement": "Bioactivity against Gram positive spore forming bacteria Bacillus licheniformis MTCC 9857", "setting": "[2]", "result": "not"}]}
{"substance": "MASKRDCNLMKACCAGQAVTYAIHSLLNRLGGDC(X1)SDPAGCNDIVRKYCK (cysteines drawn unpaired) [SEQ ID NO: 40]", "values": [{"measurement": "Zone of inhibition as well as glycosylation positive", "setting": "L. monocytogenes EGD-e", "result": "positive"}, {"measurement": "Zone of inhibition as well as glycosylation positive", "setting": "L. monocytogenes EGD-e; listed as S34C", "result": "Yes"}, {"measurement": "Bioactivity compared with the parent peptide", "setting": "L. monocytogenes EGD-e; ADT, L. monocytogenes EGDe, FIG. 5Bd-e", "result": "equally bioactive"}, {"measurement": "IC50", "setting": "[1]", "result": "314.7 ± 0.18", "unit": "µM"}, {"measurement": "Bioactivity compared with the parent peptide", "setting": "[4]", "result": "equally bioactive"}]}
{"substance": "neo-glycocin with pediocin box (YYGNGV): MASKYYGNGVKRDCNLMKACCAGQAVTYAIHSLLNRLGGDSSDPAGCNDIVRKYCK (not fully specified; cysteine pairing not given here) [SEQ ID NO: 11]", "values": [{"measurement": "Zone of inhibition as well as glycosylation positive", "setting": "L. monocytogenes EGD-e", "result": "positive"}, {"measurement": "Zone of inhibition as well as glycosylation positive", "setting": "L. monocytogenes EGD-e; listed as PedioEnt96", "result": "Yes"}, {"measurement": "Activity against L. monocytogenes compared with diglycosylated glycocin", "setting": "L. monocytogenes EGD-e; monoglycosylated length and glycan variant, strain not specified", "result": "as active as diglycosylated glycocin"}, {"measurement": "Anti-bacterial activity (MIC in μM)", "setting": "L. monocytogenes [5]", "result": ">0.54", "unit": "µM"}, {"measurement": "Hemolysis (MHC in μM)", "setting": "human red blood cells", "result": 600, "unit": "µM"}, {"measurement": "IC50", "setting": "THP-1 cells; 50% cell death, THP-1 cells, MTT, 18-24 hours", "result": "233.6 ± 0.132", "unit": "µM"}, {"measurement": "IC50", "setting": "HepG2 cells; 50% cell (cancerous) death, HepG2 cells, MTT, 18-24 hours", "result": "192.1 ± 0.135", "unit": "µM"}, {"measurement": "Antimicrobial spectrum compared with native glycocin / Nisin and Enterocin 96", "setting": "bacterial strains", "result": "different antimicrobial spectrum"}]}
